Our source for the IC50 values is patent US5476847A, “Derivatives of phosphinic acid useful as endothelin converting enzyme inhibitors” (priority 1994, dated 1995).

The target of the experiment is T1, ECE (Cavia porcellus, UniProt P97739).
T1 construct: tissue Keystone Biologicals, Cleveland, Ohio; host or cells: frozen guinea pig lungs; lubrol PX-treated lung membranes
T1 sequence (P97739 1-754): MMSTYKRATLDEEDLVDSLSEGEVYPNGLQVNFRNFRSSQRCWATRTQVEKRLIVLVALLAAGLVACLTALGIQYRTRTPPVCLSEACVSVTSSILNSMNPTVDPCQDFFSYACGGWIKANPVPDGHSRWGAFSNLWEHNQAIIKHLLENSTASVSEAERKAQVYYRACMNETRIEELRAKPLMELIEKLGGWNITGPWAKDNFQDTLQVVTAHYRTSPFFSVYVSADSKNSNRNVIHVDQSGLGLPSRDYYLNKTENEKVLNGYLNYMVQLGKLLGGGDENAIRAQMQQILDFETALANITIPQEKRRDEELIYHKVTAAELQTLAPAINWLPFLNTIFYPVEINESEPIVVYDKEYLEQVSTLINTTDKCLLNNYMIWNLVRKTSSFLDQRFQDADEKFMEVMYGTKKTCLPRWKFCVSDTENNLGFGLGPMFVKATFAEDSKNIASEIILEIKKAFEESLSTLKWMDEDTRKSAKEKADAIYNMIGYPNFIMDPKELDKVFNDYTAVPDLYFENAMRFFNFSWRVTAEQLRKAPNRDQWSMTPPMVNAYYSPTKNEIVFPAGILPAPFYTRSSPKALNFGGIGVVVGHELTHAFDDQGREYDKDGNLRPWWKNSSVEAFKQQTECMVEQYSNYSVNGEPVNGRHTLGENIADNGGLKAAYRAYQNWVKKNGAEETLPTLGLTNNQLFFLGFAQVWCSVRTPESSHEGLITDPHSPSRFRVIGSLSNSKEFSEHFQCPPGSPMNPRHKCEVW
As to the kind of experiment: In vitro ECE assay (inhibition of [125I]BET-1 to [125I]ET-1 conversion, lubrol-treated guinea pig lung membrane). The settings on record: L-GPLGM, 2 h preincubation at 4° C., 500 pM [125I]BET-1, table of examples, read-out: ECE IC50. It counts as biochemical. From the text: The ECE assay is based on the quantitative determination of [^125 l]ET-1 released from [^125 l]BET-1 labeled on Tyrosine-13 by binding to the membrane-bound ET receptor. […] GPLGM was also found to contain a high density of ET receptors. Thus, this preparation was utilized as a source of both ECE and a saturating concentration of ET receptors for the quantitative determination of [251l]ET-1 from the conversion of [125l ]BET-1. Under selected experimental conditions of the ECE assay, specific [125l]ET-1 bound was directly related to ECE activity. Assays were carried out in the presence of varying concentrations of test compounds to evaluate their efficacy in inhibiting ECE activity.
Frozen guinea pig lungs (Keystone Biologicals,Cleveland, Ohio) are weighed and homogenized in 10 times gram tissue weight of solution A (50 mM Tris-HCl, pH 7.4, 0.25M sucrose, and 2 mM EDTA) using a Polytron tissue homogenizer (probe PTA-20S). Homogenization is repeated four times at speed setting seven each for 10 s and with 5-8 min intervals on ice in between homogenization. Homogenates are spun for 30 min at 2000 g (4100 rpm in an SS34 rotor or 3800 rpm in an SA-600 rotor). Supernatants containing membranes are carefully decanted and saved. Pellets are rehomogenized in solution A as described, and homogenates are spun at 2000 g for 30 min. Supernatants are removed, mixed with the supernatants from the first spin, and spun at 37000 rpm in a 45 Ti rotor (107022 g) for 60 min. Pellets containing membranes are suspended in solution B (10 mM Tris-HCl, pH 7.4, and 0.125M sucrose) using a Dounce homogenizer. Samples are divided into 1 ml fractions, rapidly frozen in a dry ice methanol bath, and stored at -80° C. All steps are carried out at 4° C.
GPLGM fractions prepared as described above are thawed and resuspended at a concentration of 1 mg membrane protein/mL in a solution containing 0.06% lubrol PX, 50 mM Tris-HCl (pH 7.4), and 100 mM NaCl. Stir the mixture for 1 h and then spin for 1 h at 37000 rpm in a 45 Ti rotor (107022 g). Discard the supernatants and resuspend the pellets in a solution containing 50 mM Tris-HCl (pH 7.4), and 100 mM NaCl using a Dounce homogenizer, and adjust the final volume to half the original volume. Spin the homogenates for 1 h at 37000 rpm in a 45 Ti rotor (107022 g). Suspend the membrane pellets in solution B and treat as described above. All steps are performed at 4° C.
ECE Assay: Samples of L-GPLGM containing 20 μg protein are incubated in a solution containing 100 mM Tris-HCl (pH 7), 100 mM NaCl, and 5 mg/ml BSA (Fraction V, 98-99% albumin) (Sigma Chemical Co.) at a final reaction volume of 100 μL. The ECE assay is initiated by the addition of [^125 l]BET-1 to obtain a final concentration of 500 pM. Reactions are carried out for 30 min at 37° C. Reactions are terminated by addition of 4 mL of solution C (10 mM Tris-HCl, pH 7.4, and 150 mM NaCl) at 4° C. followed by rapid filtration on Whatman GF/B glass microfiber filters. Filters are presoaked for 1 h at 4° C. in a solution containing 50 mM Tris-HCl (pH 7.4), 10 mg/mL BSA, and 0.1% sodium azide. Wash test tubes and filters four times with 4 mL of solution C at 4° C., and count radioactivity retained on the filters in a γ counter. Non-specific binding is determined in the presence of 1 μM of unlabeled ET-1 (Peninsula Laboratories, Inc., Belmont, Calif.) in the reaction mixture. All reactions are performed in duplicate.
To test the effect of test compounds on ECE activity, ECE assays are carried out in the presence of varying concentrations of the compounds. Assays are initiated following a 2 h incubation of L-GPLGM with the compound at 4° C. ECE activity in the presence of compounds is expressed as a percentage of control ECE activity of the membrane preparation, which is determined simultaneously.

pIC50: −log10 of the molar value.

For the compound `O=C(NC(Cc1ccc(OCc2ccccc2)cc1)P(=O)(O)CC1(C(=O)N[C@@H](Cc2c[nH]c3ccccc23)C(=O)O)CCCC1)OCc1ccccc1` (stereo partly shown) [Example 1B], the pIC50 was 6.40.
Next, `O=C(NC(Cc1ccccc1)P(=O)(O)CC1(C(=O)N[C@@H](Cc2c[nH]c3ccccc23)C(=O)O)CCCCCC1)OCc1ccccc1` (stereo partly shown) [Example 1C]: 6.10; `O=C(N[C@@H](Cc1ccccc1)P(=O)(O)CC1(C(=O)N[C@@H](Cc2c[nH]c3ccccc23)C(=O)O)CCCC1)OCc1ccccc1` [Example 1]: 6.72.
Next, `O=C(N[C@@H](Cc1ccccc1)P(=O)(O)CC1(C(=O)N[C@@H](Cc2ccc(O)cc2)C(=O)O)CCCC1)OCc1ccccc1` [Example 2]: 6.89; `COc1ccc(CC(NC(=O)[C@H](CCCCNC(=O)OCc2ccccc2)NS(C)(=O)=O)P(=O)(O)CC2(C(=O)N[C@@H](Cc3c[nH]c4ccccc34)C(=O)O)CCCC2)cc1` (stereo partly shown) [Example 3A]: 7.30; `CS(=O)(=O)N[C@@H](CCCCNC(=O)OCc1ccccc1)C(=O)NC(Cc1ccc(O)cc1)P(=O)(O)CC1(C(=O)N[C@@H](Cc2c[nH]c3ccccc23)C(=O)O)CCCC1` (stereo partly shown) [Example 3B]: 7.26.
`CS(=O)(=O)N[C@@H](CCCCNC(=O)OCc1ccccc1)C(=O)NC(Cc1ccc2ccccc2c1)P(=O)(O)CC1(C(=O)N[C@@H](Cc2c[nH]c3ccccc23)C(=O)O)CCCC1` (stereo partly shown) [Example 3C]: the pIC50 is 7.26.
Next, `CC(C)CC(NC(=O)[C@H](CCCCNC(=O)OCc1ccccc1)NS(C)(=O)=O)P(=O)(O)CC1(C(=O)N[C@@H](Cc2c[nH]c3ccccc23)C(=O)O)CCCC1` (stereo partly shown) [Example 3D]: 7.26.
Next, `CS(=O)(=O)N[C@@H](CCCCNC(=O)OCc1ccccc1)C(=O)N[C@@H](Cc1ccccc1)P(=O)(O)CC1(C(=O)N[C@@H](Cc2ccc(O)cc2)C(=O)O)CCCC1` [Example 4]: 6.92; `COc1ccc(CC(NC(=O)[C@H](CCCCN)NS(C)(=O)=O)P(=O)(O)CC2(C(=O)N[C@@H](Cc3c[nH]c4ccccc34)C(=O)O)CCCC2)cc1` (stereo partly shown) [Example 5A]: 7.40.
Next, `CS(=O)(=O)N[C@@H](CCCCN)C(=O)NC(Cc1ccc(O)cc1)P(=O)(O)CC1(C(=O)N[C@@H](Cc2c[nH]c3ccccc23)C(=O)O)CCCC1` (stereo partly shown) [Example 5B]: 7.00; `CS(=O)(=O)N[C@@H](CCCCN)C(=O)N[C@@H](Cc1ccccc1)P(=O)(O)CC1(C(=O)N[C@@H](Cc2ccc(O)cc2)C(=O)O)CCCC1` [Example 5C]: 7.00.
Regarding `O=C(N[C@@H](Cc1ccccc1)P(=O)(O)CC1(C(=O)N[C@@H](Cc2c[nH]c3ccccc23)C(=O)O)CCCC1)c1ccccc1` [Example 6.2B], the negative-log IC50 (pIC50) is 6.60.
With `NCc1ccc(C(=O)N[C@@H](Cc2ccccc2)P(=O)(O)CC2(C(=O)N[C@@H](Cc3c[nH]c4ccccc34)C(=O)O)CCCC2)cc1` [Example 6], the pIC50 is 7.05.
Turning to `O=C(NC(Cc1ccc(C(=O)N2CCOCC2)cc1)P(=O)(O)CC1(C(=O)N[C@@H](Cc2c[nH]c3ccccc23)C(=O)O)CCCC1)OCc1ccccc1` (stereo partly shown) [Example 7], the pIC50 is 7.30.
For `NC(=O)c1ccc(CC(NC(=O)OCc2ccccc2)P(=O)(O)CC2(C(=O)N[C@@H](Cc3c[nH]c4ccccc34)C(=O)O)CCCC2)cc1` (stereo partly shown) [Example 8A] the value was 6.54; for `O=C(NC(Cc1ccc(C(=O)O)cc1)P(=O)(O)CC1(C(=O)N[C@@H](Cc2c[nH]c3ccccc23)C(=O)O)CCCC1)OCc1ccccc1` (stereo partly shown) [Example 8B], 6.31; for `O=C(NC(Cc1ccc(O)cc1)P(=O)(O)CC1(C(=O)N[C@@H](Cc2c[nH]c3ccccc23)C(=O)O)CCCC1)OCc1ccccc1` (stereo partly shown) [Example 8], 7.07.
For `CC(C)CC(CP(=O)(O)C(CC(C)C)NC(=O)[C@H](CCCCNC(=O)OCc1ccccc1)NS(C)(=O)=O)C(=O)N[C@@H](Cc1c[nH]c2ccccc12)C(=O)O` (stereo partly shown) [Example 10B] the value was 5.85; for `CC(C)C(CP(=O)(O)C(Cc1ccccc1)NC(=O)[C@H](CCC(N)=O)NC(=O)OCc1ccccc1)C(=O)N[C@@H](Cc1c[nH]c2ccccc12)C(=O)O` (stereo partly shown) [Example 10C], 6.70; for `CC(C)CC(CP(=O)(O)C(CCCCO)NC(=O)[C@H](CC(C)C)NS(C)(=O)=O)C(=O)N[C@@H](Cc1c[nH]c2ccccc12)C(=O)O` (stereo partly shown) [Example 10D], 6.82.
Next, `CC(C)CC(CP(=O)(O)C(CC1CCCC1)NC(=O)[C@H](CCCCNC(=O)OCc1ccccc1)NS(C)(=O)=O)C(=O)N[C@@H](Cc1c[nH]c2ccccc12)C(=O)O` (stereo partly shown) [Example 10E]: 7.26.
